ChEMBL document CHEMBL2034939, “Structure-based virtual screening of novel inhibitors of the uridyltransferase activity of Xanthomonas oryzae pv. oryzae GlmU” (Eur J Med Chem, 2012)
In brackets after ≈: the same amount, converted by molar mass.

How the values were obtained:
[1] = Inhibition of Xanthomonas oryzae pv. oryzae KS-1-21 uridyltransferase domain of GlmU activity by ion-pair reverse-phase HPLC analysis
[2] = test system: Xanthomonas oryzae pv. oryzae; test: Antibacterial activity against Xanthomonas oryzae pv. oryzae KS-1-21 after 36 to 48 hrs by broth microdilution assay; type: functional
[3] = Noncompetitive inhibition of Xanthomonas oryzae pv. Oryzae KS-1-21 GlmU using 0.25 to 0.05 mM GlcNAc-1-p and 500 uM UTP by Lineweaver-Burk plot analysis
[4] = Noncompetitive inhibition of Xanthomonas oryzae pv. Oryzae KS-1-21 GlmU using varying concentration of UTP and 500 uM GlcNAc-1-p by Lineweaver-Burk plot analysis
[5] = Uncompetitive inhibition of Xanthomonas oryzae pv. Oryzae KS-1-21 GlmU using 0.25 to 0.05 mM GlcNAc-1-p and 500 uM UTP by Lineweaver-Burk plot analysis
[6] = Competitive inhibition of Xanthomonas oryzae pv. Oryzae KS-1-21 GlmU using varying concentration of UTP and 500 uM GlcNAc-1-p by Lineweaver-Burk plot analysis
[7] = Competitive inhibition of Xanthomonas oryzae pv. Oryzae KS-1-21 GlmU using 0.25 to 0.05 mM GlcNAc-1-p and 500 uM UTP by Lineweaver-Burk plot analysis
[8] = Uncompetitive inhibition of Xanthomonas oryzae pv. Oryzae KS-1-21 GlmU using varying concentration of UTP and 500 uM GlcNAc-1-p by Lineweaver-Burk plot analysis

Structure (SMILES) | IC50 [1] [µM] | MIC [2] [µg/mL] | further results
CCN(CC)c1ccc(/C=C(\NC(=O)c2ccccc2)C(=O)N/N=C/c2cc(O)ccc2Br)cc1 | 62.5 | > 500 | –
CCCCCOc1ccc(/C=N/NC(=O)c2nnn(-c3nonc3N)c2CN2CCCCCC2)cc1 | 87.4 | > 500 | –
Cc1cc(OCC(=O)NNC(=O)c2ccc(O)cc2O)cc(C)c1Cl | 23.2 | 420 (≈ 1150 µM) | Ki [3]: 19.4 µM; Ki [4]: 8.89 µM
O=C(CCCCC(=O)NNC(=O)COc1ccc2ccccc2c1)NNC(=O)COc1ccc2ccccc2c1 | 14.2 | 302 (≈ 557 µM) | Ki [5]: 8.23 µM; Ki [6]: 8.1 µM
CCOc1ccc(C(=O)NCCCCCCCNC(=O)c2ccc(OCC)cc2)cc1 | 76.5 | > 500 | –
Cc1ccc(OCC(=O)Nc2ccccc2C(=O)NC2CCCCC2)cc1 | 84.2 | > 500 | –
COc1ccc(C(=O)/C=C/c2cn(CC(O)CN3CCCCC3)c3ccccc23)cc1OC (configuration not stated) | > 100 | 82 (≈ 183 µM) | –
O=c1cc(-c2ccc(O)c(O)c2)oc2cc(O)cc(O)c12 [LUTEOLIN] | 0.81 | 186 (≈ 651 µM) | Ki [7]: 0.44 µM; Ki [8]: 0.99 µM
